These results are taken from patent US20250018019A1, “TREATMENT OF INTERFERON DRIVEN INFLAMMATION” (The Provost, Fellows, Foundation Scholars and the other …, priority 2023, published 2025).

Where a name gives a salt, the structure may show the parent alone.

For experiment [1], the system named is human macrophages. Put plainly: RT-qPCR gene expression in human macrophages. It is filed as cell-based. The note with it: LPS-stimulated human macrophages, LPS 4 h. The protocol: PBMCs were taken, and CD14+ monocytes were isolated using MagniSort Human CD14 Positive Selection Kit (Thermo Fisher) according to the manufacturer's protocol. CD14 Monocytes were then differentiated in T-175 flasks in RPMI containing FCS (10%), penicillin/streptomycin (1%) and recombinant human M-CSF (1:1000). After 6 days, the supernatant was discarded, cells were scraped and counted, and human monocyte-derived macrophages (hMDMs) were plated in 12-well plates at 1×10^6 cells/mL RPMI containing FCS (10%) and penicillin/streptomycin (1%).
All compounds used DMSO as a vehicle except for 4-hydroxy tamoxifen (EtOH), NAC (PBS), and AOAA for tracing experiments (Media). […]
RNA extraction from cells was carried out using a Purelink™ RNA kit (Invitrogen) according to the manufacturer's instructions. […] Isolated RNA was quantified using a NanoDrop 2000 spectrophotometer, and RNA concentration was normalised to the lowest concentration across all samples with RNAse-free water. If necessary, samples were DNAse-treated after quantification using DNAse I (Thermo Fisher) according to the manufacturer's instructions. […] Real-time quantitative PCR was performed on the cDNA generated in the previous step, using primers designed in-house and ordered from Eurofins Genomics, as detailed in Table S2. […] Relative expression (2^−ΔΔCT) was calculated from the CT values for each sample and gene of interest.
A general note: Quantitative PCR measures a nucleic acid by following its amplification.

For experiment [2], the system named is MAVS. The experiment in a line: MAVS oligomerisation. The note with it: BMDMs pre-treated, LPS 4 h. It is filed as cell-based, mouse. Here is the method:
BMDMs were plated at 1×10^6 cells/well in technical triplicate and treated as desired. After treatment, cells were washed twice with 200 μl cold PBS before being lysed in crosslinking lysis buffer (50 mM HEPES, 0.5% triton X-100, 1X protease inhibitor cocktail). Samples were placed on ice for 15 mins. Lysates were centrifuged for 15 mins at 6000×g at 4° C. and the supernatant was removed and frozen down as the ‘soluble fraction.’ 20 μl of the soluble fraction was mixed with 5 μl of sample lysis buffer (0.125 M Tris pH 6.8, 10% glycerol, 0.02% SDS, 5% DTT) and run on a 10% gel. The insoluble pellet was resuspended in HEPES (50 mM) and washed 3 times by centrifuging at 6000×g at 4° C. and removing the supernatant each time. After the final wash, the pellet was resuspended in 500 μl crosslinking buffer (50 mM HEPES, 150 mM NaCl) and disuccinimidyl suberate (DSS, Thermo Fisher, made up in anhydrous DMSO) was added to the final concentration of 2 mM. Immediately following the addition of DSS, the sample was inverted several times and incubated for 45 mins at 37° C. The sample was then centrifuged for 15 mins at 6000×g at 4° C., before the supernatant was removed and the pellet was resuspended in 30 μl sample lysis buffer. The resuspended ‘insoluble fraction’ was subsequently boiled for 5 mins at 95° C. before being run on a gel.

For `CCOC(=O)[C@@]12CCCC=C1N(Cc1ccc(-c3ccccc3)cc1)C(=O)[C@H]2CC(=O)NC` [FHIN1, Fumarate hydratase-IN-1], in experiment [1], the IL10 expression entry is on record as “suppressed” and the Tnfa expression result is “increased”. Also, in experiment [2], the MAVS oligomerisation entry was “observed MAVS oligomerisation”.
